How the values were obtained:
PGD2 receptor = target: T1, PGD2 receptor (Homo sapiens, UniProt Q13258); experiment: Binding to PGD2 receptor ([3H]PGD2, human platelet membrane fraction); settings: 5 nM [3H]PGD2, 4° C., 90 min, read-out: Activity (binding-inhibitory activity, concentration required for 50% inhibition, IC50)
T1 construct: Preparation of Human Platelet Membrane Fraction; from tissue; host or cells: human platelets (membrane fraction) from blood of healthy volunteers
T1 sequence (Q13258 1-359): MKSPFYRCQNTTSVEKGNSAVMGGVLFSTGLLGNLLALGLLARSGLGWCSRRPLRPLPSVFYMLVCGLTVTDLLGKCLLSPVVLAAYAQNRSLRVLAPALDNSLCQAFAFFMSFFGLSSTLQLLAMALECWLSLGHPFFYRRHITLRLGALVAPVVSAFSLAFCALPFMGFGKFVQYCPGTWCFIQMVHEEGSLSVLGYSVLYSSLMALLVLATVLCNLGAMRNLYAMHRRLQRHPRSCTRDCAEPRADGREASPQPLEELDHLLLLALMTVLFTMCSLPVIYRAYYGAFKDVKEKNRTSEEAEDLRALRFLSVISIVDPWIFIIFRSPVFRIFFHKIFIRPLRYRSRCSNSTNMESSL
Method: (1) Preparation of Human Platelet Membrane Fraction
Blood sample was obtained using a plastic syringe containing 3.8% sodium citrate from a venous of healthy volunteers (adult male and female), put into a plastic test tube and mixed gently by inversion. The sample was then centrifuged at 1800 rpm, 10 min at room temperature, and supernatant containing PRP (platelet rich plasma) was collected. The PRP was re-centrifuged at 2300 rpm, 22 min at room temperature to obtain platelets. The platelets were homogenized using a homogenizer (Ultra-Turrax) followed by centrifugation 3 times at 20,000 rpm, 10 min at 4° C. to obtain platelet membrane fraction. After protein determination, the membrane fraction was adjusted to 2 mg/ml and preserved in a refrigerator at […] until use.
(2) Binding to PGD2 Receptor
To a binding-reaction solution (50 mM Tris/HCl, pH 7.4, 5 mM MgCl2) (0.2 ml) were added human platelet membrane fraction (0.1 mg) and 5 nM [3H]PGD2 (115 Ci/mmol), and reacted at 4° C. for 90 min. After the reaction completed, the reaction mixture was filtered through the glass fiber filter paper, washed several times with cooled saline, and measured radioactivity retained on the filter paper. The specific binding was calculated by subtracting the non-specific binding (the binding in the presence of 10 μM PGD2) from the total binding. […]

[1] = test system: nasal cavity resistance (nasal occlusion model); experiment: Nasal occlusion model: nasal cavity resistance after antigen (OVA) exposure in sensitized guinea pig; format: in vivo; settings: 1 mg/kg (i.v.), 10 min before antigen exposure
Method: Experiment Using Nasal Occlusion Model
The method used for measuring the nasal cavity resistance and evaluating the anti-nasal occlusion using a guinea pig are described below.
A 1% ovalbumin (OVA) solution was treated with ultrasonic nebulizer to obtain an aerosol. Hartley male guinea pig was sensitized by inhaling twice the aerosol for 10 min at one-week interval. Seven-day after the sensitization, the guinea pig was exposed to an antigen to initiate the reaction. Then the trachea was incised under the anesthesia with pentobarbital (30 mg/kg, i.p.) and cannulas were inserted into the trachea at the pulmonary and nasal cavity sides. The canal inserted at the pulmonary side was connected with an artificial respirator that provides 4 ml air 60 times/min. After arresting the spontaneous respiration of a guinea pig with Garamin (2 mg/kg, i.v.), air was supplied to the snout side with an artificial respirator at the frequency of 70 times/min, and the flow rate of 4 ml air/time, and the atmospheric pressure required for the aeration was measured by the use of a transducer fitted at the branch. The measurement was used as a parameter of the nasal cavity resistance. The exposure of an antigen was carried out by generating aerosol of 3% OVA solution for 3 min between the respirator and nasal cavity cannula. The test drug was injected intravenously 10 min before the antigen exposure. […]

- IC50 (PGD2 receptor): 130 nM
Compound: O=C(O)CCC/C=C\C[C@@H]1[C@H]2CC[C@H](C2)[C@H]1NS(=O)(=O)c1ccc2oc3ccccc3c2c1 [1a-2, (Z)-7-[(1S,2R,3R,4R)-3-(2-dibezofuryl)sulfonylaminobicyclo[2.2.1]hept-2-yl]-5-heptenoic acid]
- Inhibition Rate (%) of nasal cavity resistance (AUC 0-30 min vs vehicle) [1]: 82%
